According to US20190166840A1, “SUBSTITUTED PYRAZOLINYL DERIVATIVES, PROCESSES FOR THEIR PREPARATION AND THEIR USE AS HERBICIDES AND/OR PLANT GROWTH REGULATORS” (BAYER CROPSCIENCE AKTIENGESELLSCHAFT, priority 2016, published 2019):

Columns and labels:
Assay type in all cases: in vivo
Settings in all cases: application rate 1280 g/ha, scored visually after about 3 weeks
Alopecurus myosuroides = assay: Pre-emergence herbicidal action, ALOMY
Description: (§1) Pre-Emergence Herbicidal Action Seeds of mono- and dicotyledonous weed plants or crop plants were placed in sandy loam in wood fibre pots and covered with soil. The formulated compounds of the general formula (I) according to the invention were then applied to the surface of the covering soil in the form of an aqueous suspension or emulsion at an application rate of 600 l of water/ha (converted) with addition of 0.2% wetting agent. After the treatment, the pots were placed in a greenhouse and kept under good growth conditions for the test plants. After about 3 weeks, the effect was scored visually in percent in comparison to untreated controls. For example, 100% activity=the plants have died, 50% herbicidal activity or damage=plants reduced to 50% or plant material reduced by 50%, 0% activity=like control plants. Here, in the biological tests, the compounds of the general formula (I) according to the invention were in each case employed in a formulation, with the numerations of Tables I.1 to I.77 also applying here. Here, the herbicidal action of the compounds of the general formula (I) according to the invention was examined for the following harmful plants: ALOMY=Alopecurus myosuroides The respective herbicidal action was in each case determined at the same point in time after application of the formulation in question, i.e. damage of the harmful plant in question in %. Pre-emergence herbicidal action of the compounds of the general formula (I) according to the invention: […]

Abutilon theophrasti = assay: Pre-emergence herbicidal action, ABUTH
Description: as §1, with “ABUTH=Abutilon theophrasti” for “ALOMY=Alopecurus myosuroides”

Amaranthus retroflexus = assay: Pre-emergence herbicidal action, AMARE
Description: as §1, with “AMARE=Amaranthus retroflexus” for “ALOMY=Alopecurus myosuroides”

Ipomoea purpurea = assay: Pre-emergence herbicidal action, PHBPU
Description: as §1, with “PHBPU=Ipomoea purpurea” for “ALOMY=Alopecurus myosuroides”

Hordeum murinum = assay: Pre-emergence herbicidal action, HORMU
Description: as §1, with “HORMU=Hordeum murinum” for “ALOMY=Alopecurus myosuroides”

CC1=C(C)C(O)N(C2=NN(c3ccccn3)C(C)(C)C2)C1=O (stereo not drawn) [I.2-132]
Pre-emergence herbicidal action ALOMY, damage of the harmful plant (Alopecurus myosuroides): 70%
Pre-emergence herbicidal action ABUTH, damage of the harmful plant (Abutilon theophrasti): 70%
Pre-emergence herbicidal action AMARE, damage of the harmful plant (Amaranthus retroflexus): 60%
Pre-emergence herbicidal action PHBPU, damage of the harmful plant (Ipomoea purpurea): 0%
Pre-emergence herbicidal action HORMU, damage of the harmful plant (Hordeum murinum): 0%

CC1=C(C)C(O)N(C2=NN(c3ccccc3)C(C(F)(F)F)C2)C1=O (stereo not drawn) [I.2-1413]
Pre-emergence herbicidal action ALOMY, damage of the harmful plant (Alopecurus myosuroides): 70%
Pre-emergence herbicidal action ABUTH, damage of the harmful plant (Abutilon theophrasti): 0%
Pre-emergence herbicidal action AMARE, damage of the harmful plant (Amaranthus retroflexus): 60%
Pre-emergence herbicidal action PHBPU, damage of the harmful plant (Ipomoea purpurea): 0%
Pre-emergence herbicidal action HORMU, damage of the harmful plant (Hordeum murinum): 60%

CCC(=O)OC1C(C)=C(C)C(=O)N1C1=NN(c2ccccn2)C(C)(C)C1 (stereo not drawn) [I.23-132]
Pre-emergence herbicidal action ALOMY, damage of the harmful plant (Alopecurus myosuroides): 60%
Pre-emergence herbicidal action ABUTH, damage of the harmful plant (Abutilon theophrasti): 0%
Pre-emergence herbicidal action AMARE, damage of the harmful plant (Amaranthus retroflexus): 70%
Pre-emergence herbicidal action PHBPU, damage of the harmful plant (Ipomoea purpurea): 30%
Pre-emergence herbicidal action HORMU, damage of the harmful plant (Hordeum murinum): 20%

CCC(=O)OC1C(C)=C(C)C(=O)N1C1=NN(c2ccccc2)CC1 (stereo not drawn) [I.23-621]
Pre-emergence herbicidal action ALOMY, damage of the harmful plant (Alopecurus myosuroides): 0%
Pre-emergence herbicidal action ABUTH, damage of the harmful plant (Abutilon theophrasti): 0%
Pre-emergence herbicidal action AMARE, damage of the harmful plant (Amaranthus retroflexus): 40%
Pre-emergence herbicidal action PHBPU, damage of the harmful plant (Ipomoea purpurea): 0%
Pre-emergence herbicidal action HORMU, damage of the harmful plant (Hordeum murinum): 0%

CCC(=O)OC1C(C)=C(C)C(=O)N1C1=NN(c2ccccc2)C(C(F)(F)F)C1 (stereo not drawn) [I.23-1413]
Pre-emergence herbicidal action ALOMY, damage of the harmful plant (Alopecurus myosuroides): 0%
Pre-emergence herbicidal action ABUTH, damage of the harmful plant (Abutilon theophrasti): 0%
Pre-emergence herbicidal action AMARE, damage of the harmful plant (Amaranthus retroflexus): 50%
Pre-emergence herbicidal action PHBPU, damage of the harmful plant (Ipomoea purpurea): 0%
Pre-emergence herbicidal action HORMU, damage of the harmful plant (Hordeum murinum): 30%

CCC(=O)OC1C(C)=C(Cl)C(=O)N1C1=NN(C)C(c2ccccc2)C1 (stereo not drawn) [I.24-1126]
Pre-emergence herbicidal action ALOMY, damage of the harmful plant (Alopecurus myosuroides): 10%
Pre-emergence herbicidal action ABUTH, damage of the harmful plant (Abutilon theophrasti): 0%
Pre-emergence herbicidal action AMARE, damage of the harmful plant (Amaranthus retroflexus): 0%
Pre-emergence herbicidal action PHBPU, damage of the harmful plant (Ipomoea purpurea): 100%
Pre-emergence herbicidal action HORMU, damage of the harmful plant (Hordeum murinum): 20%
